Entries after “also recorded” stand apart in the source; their conditions may differ.
Legend:
[1] = system: insulin receptor beta (Tyr 1150/1151); experiment: Western blot of phosphorylated to total insulin receptor beta in rat retina; assay type: in vivo; conditions: diabetic rats, 1 mM eye drops
From the text: The other eye from each animal was used for protein analyses for inflammatory markers and insulin receptor signaling. Western blotting was done as described (9). Antibodies used were total insulin receptor beta (1:500, Cellular Signaling, Danvers, Mass.), phosphorylated insulin receptor beta (Tyr 1150/1151, 1:500, Cellular Signaling, Danvers, Mass.), total Akt (1:500, Cellular Signaling, Danvers, Mass.), and phosphorylated Akt (Ser 473, 1:500, Cellular Signaling, Danvers, Mass.). For analyses of the data, mean densitometry values were obtained using the Kodak 2.0 software. The ratio of phosphorylated protein was compared to levels of total protein.

[2] = system: retinal capillaries of diabetic rats; experiment: Quantitation of acellular (degenerate) capillaries in trypsin-digested retinal vasculature; assay type: in vivo, rat; conditions: 1 mM eye drops, 8 months of diabetes, hydrochloride
Experimental: For the acellular capillary counts, retinas from an eye of control, diabetic, and diabetic+2 were used. Eyes were enucleated and placed into 10% buffered formalin for 5 days. The retina was dissected in 3% crude trypsin solution (Difco Bacto Trypsin 250, Detroit, Mich.) containing 0.2 M sodium fluoride at 37 C for 2 hours (5). The neural retina was gently brushed away and the remaining retinal vascular tree was dried onto a glass slide. Once the isolated retinal vascular tree was dried onto the glass slide, the slide was stained with hematoxylin-periodic acid-Schiff. Degenerate (acellular) capillaries were counted in mid-retina in six to seven fields evenly spaced around the retina. Degenerate capillaries were identified as capillary-sized tubes having no nuclei anywhere along their length. Degenerate capillaries were counted only if their average diameter was at least 20% of that found in surrounding healthy capillaries (6-7).

[3] = Plasma levels of Compound 2 after intravenous or topical administration to rats (LC/MS/MS); assay type: in vivo; conditions: rat
Experimental: B/PK was characterized following intravenous administration to rats. Following drug administration, blood samples (2-300 μL) were withdrawn from the jugular vein catheter at regular intervals after dosing (5, 15, 30, 45 minutes and 1, 2, 4, 8, 16, and 24 hours) into K3-EDTA anti-coagulated sampling tubes. Plasma was obtained by centrifugation and stored at −80° C. until analysis. The heart, lung and spleen were harvested in order to determine the tissue distribution of Compound 2. Cumulative urinary samples were collected over 24 hours post-dose and stored at −80° C. until analysis. B/PK was characterized following topical administration. Following drug administration to rats, eyes were enucleated, irrigated with saline, and vitreous humor aspirated from the inner region of the vitreous chamber using an 18-gauge needle. Blood samples were obtained simultaneously in order to determine the extent of systemic exposure following topical administration. Vitreous humor and blood samples were obtained at regular intervals after dosing. Time points were determined based upon concentration time profiles obtained following intravenous administration of Compound 2. For data analyses B/PK parameters were derived from the obtained plasma, vitreous humor, urine and feces concentration data by standard non-compartmental analysis. Terminal half-life was determined as the ratio of ln 2 divided by λz, the negative of the slope of the linear regression of the natural log concentration vs. time profile during the terminal phase. Systemic and ocular exposure was determined as plasma or ocular area under the concentration-time curve (AUC) using the trapezoidal rule. Compound 2 concentration determination and metabolite profiling is conducted using a validated LC/MS/MS assay based on the methodology described (14-15). The LC-MS/MS system comprises a Shimadzu HPLC system (Kyoto, Japan), API-4000 Q Trap tandem mass spectrometer (Foster City, Calif., USA) equipped with a turbo ion-spray and a HTC-PAL autosampler (Leap Technologies, Carrboro, N.C., USA).

retina of diabetic rats = experiment: Assessment of retinal thinning and loss of cells in ganglion cell layer; assay type: in vivo, rat
From the text: Assessment of retinal thinning and loss of cells in ganglion cell layer Formalin-fixed paraffin sections were stained with toluidine blue for light microscopy and morphometry of retinal thickness (8). Pictures were taken at four locations in the retina (both sides of the optic nerve and mid-retina) at 400×. The nuclei in the retinal ganglion cell layer (GCL) were counted in a […] section of each picture, and the thickness of the inner retina (from the top of the inner nuclear layer to the inner limiting membrane) was assessed using a Retiga camera attached to a Nikon Biophot light microscope with Qcapture software (Qlmaging, Burbay, BC, Canada). Retinal thickness and number of cells in the ganglion cell layer were measured using OpenLab software (Improvision, Lexington, Mass.). Retinal thickness and live retinal imaging were assessed using rodent OCT. Each layer of the retina was examined multiple times on the same animal in a non-invasive way to determine changing in specific regions over the course of the experiment. […] Light microscopy was used for histological examination of neuronal changes, which often occur in the acute phases. Formalin-fixed paraffin sections were stained with toluidine blue for light microscopy and morphometry of retinal thickness. Pictures were taken at four locations in the retina (both sides of the optic nerve and mid-retina) at 400×. The nuclei in the retinal ganglion cell layer (GCL) were counted in a 100 μm section of each picture. The thickness of the inner retina from the top of the inner nuclear layer to the inner limiting membrane was assessed using a Retiga camera attached to a Nikon Biophot light microscope with Qcapture software (Qlmaging, Burbay, BC, Canada). Retinal thickness and number of cells in the retinal ganglion cell layer were measured using OpenLab software (Improvision, Lexington, Mass.). Unpaired T-tests were used to compare data from control, diabetic, and diabetic+eye drop treated animals, with P<0.05 being accepted as significant.

[4] = delayed treatment: 6 month diabetic rats, Compound 2 for 2 months
[5] = diabetic rats, 1 mM eye drops as preventative, central retina, hydrochloride

COc1cc(CCNC[C@H](O)c2ccc(O)c(O)c2)cc(OC)c1OC.Cl (single isomer, unassigned) [Compound 2, 4-[1-hydroxy-2-(1-ethylamino-3-,4-,5-trimethoxyphenyl)ethyl]benzene-1,2-diol hydrochloride]
insulin receptor beta tyrosine phosphorylation, 2 months ([1]; 2 months of diabetes): maintained insulin receptor beta tyrosine phosphorylation at levels similar to control animals | insulin receptor beta tyrosine phosphorylation, 8 months ([1]; 8 months of diabetes): also maintained | numbers of degenerate capillaries [2]: significantly reduced numbers of degenerate capillaries; also recorded: significantly reduce numbers of degenerate capillaries to levels similar to controls | concentration at 45 min ([3]; Lewis, plasma, over 45 minutes, dose and route not stated): ~6 ng/mL | concentration at 1 h ([3]; plasma, intravenous or topical, 10 mg/kg, limit of detection, read-out: plasma level after 1 hour): < 2.5 ng/mL | time of clearance from plasma ([3]; intravenous, 1 mg/kg): < 1 h | plasma concentration ([3]; intravenous, 10 mg/kg): ~1000 ng/mL | time of clearing from plasma ([3]; intravenous, 10 mg/kg): ≤ 30 min | plasma concentration at the 2 time points with detection ([3]; topical, 10 mg/kg): ~80 ng/mL | detection in plasma after topical delivery ([3]; topical, therapeutic dose 1 mM or 1 mg/kg, hydrochloride): did not result in detectable Compound 2 in plasma; also recorded: below the limits of detection; also recorded: not detected | Plasma concentration at start of decline ([3]; dose and route not stated): about 100 ng/ml | increase in retinal thickness over diabetic rats alone (retina of diabetic rats; [4]): ~50% | loss of cells in the ganglion cell layer, delayed treatment (retina of diabetic rats; [4]): no loss of cells in the ganglion cell layer | inner retinal thickness (retina of diabetic rats; [5]): loss of inner retinal thickness was prevented; also recorded: maintains the retinal thickness | number of cells in the ganglion cell layer (retina of diabetic rats; [5]): prevented in the Compound 2-treated animals; also recorded: maintains the retinal thickness and cell number | loss of retinal thickness and apoptosis of cells of the ganglion cell layer (retina of diabetic rats; diabetic rats, 50 mM eye drops 1 time each day for 8 months): effective in preventing the loss of retinal thickness and apoptosis of cells of the ganglion cell layer

— patent publication US20120329879A1, “BETA-ADRENERGIC RECEPTOR AGONISTS AND USES THEREOF” (THE UNIVERSITY OF TENNESSEE RESEARCH FOUNDATION, priority 2010, published 2012)
